In PubChem BioAssay (NCI):
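Method: 48-hour compound exposure of cells in 96-well plates, five concentrations, linear interpolation of endpoints. Definition used: TGI = concentration required for complete inhibition of growth.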

What was measured:
Assay in all cases: growth of human tumour cells (NCI), 48 h
OVCAR-5 ovarian = system: OVCAR-5 ovarian
SW-620 colon = system: SW-620 colon
HOP-92 NSCLC = system: HOP-92 NSCLC
DLD-1 colon = system: DLD-1 colon
TK-10 renal = system: TK-10 renal
HCT-15 colon = system: HCT-15 colon
SF-295 CNS = system: SF-295 CNS
786-0 renal = system: 786-0 renal
SK-OV-3 ovarian = system: SK-OV-3 ovarian
SK-MEL-2 melanoma = system: SK-MEL-2 melanoma
NCI-H23 lung = system: NCI-H23 lung
NCI-H522 lung = system: NCI-H522 lung
KM12 colon = system: KM12 colon
DMS 273 small cell lung = system: DMS 273 small cell lung
SF-539 CNS = system: SF-539 CNS
HOP-62 NSCLC = system: HOP-62 NSCLC
LOX IMVI melanoma = system: LOX IMVI melanoma
COLO 205 colon = system: COLO 205 colon
OVCAR-3 ovarian = system: OVCAR-3 ovarian
HOP-18 NSCLC = system: HOP-18 NSCLC
HL-60(TB) leukemia = system: HL-60(TB) leukemia
CAKI-1 renal = system: CAKI-1 renal
SF-268 CNS = system: SF-268 CNS
HT29 colon = system: HT29 colon
EKVX NSCLC = system: EKVX NSCLC
UACC-62 melanoma = system: UACC-62 melanoma
M19-MEL melanoma = system: M19-MEL melanoma
IGROV1 ovarian = system: IGROV1 ovarian
KM20L2 colon = system: KM20L2 colon
SNB-19 CNS = system: SNB-19 CNS
RXF 393 renal = system: RXF 393 renal
UO-31 renal = system: UO-31 renal
MALME-3M melanoma = system: MALME-3M melanoma
SK-MEL-28 melanoma = system: SK-MEL-28 melanoma
NCI-H460 lung = system: NCI-H460 lung
ACHN renal = system: ACHN renal
UACC-257 melanoma = system: UACC-257 melanoma
DMS 114 small cell lung = system: DMS 114 small cell lung
SNB-78 CNS = system: SNB-78 CNS
RPMI-8226 leukemia = system: RPMI-8226 leukemia
SK-MEL-5 melanoma = system: SK-MEL-5 melanoma
CCRF-CEM leukemia = system: CCRF-CEM leukemia
SNB-75 CNS = system: SNB-75 CNS
U251 CNS = system: U251 CNS
A549 NSCLC = system: A549 NSCLC
HCC-2998 colon = system: HCC-2998 colon
MOLT-4 leukemia = system: MOLT-4 leukemia
SN12C renal = system: SN12C renal
K-562 leukemia = system: K-562 leukemia
A498 renal = system: A498 renal
OVCAR-8 ovarian = system: OVCAR-8 ovarian
NCI-H226 lung = system: NCI-H226 lung
OVCAR-4 ovarian = system: OVCAR-4 ovarian
PC-3 prostate = system: PC-3 prostate
HCT-116 colon = system: HCT-116 colon
MDA-N = system: MDA-N
M14 melanoma = system: M14 melanoma
HS 578T breast = system: HS 578T breast
SR leukemia = system: SR leukemia
BT-549 breast = system: BT-549 breast
MDA-MB-231 breast = system: MDA-MB-231 breast
MCF7 breast = system: MCF7 breast
MDA-MB-435 = system: MDA-MB-435
NCI/ADR-RES ovarian = system: NCI/ADR-RES ovarian
DU-145 prostate = system: DU-145 prostate
T-47D breast = system: T-47D breast

## COc1cc(/C=C/C(=O)c2sc(Nc3ccccc3)nc2C)ccc1O
OVCAR-5 ovarian
  TGI: > 100 µM
SW-620 colon
  TGI: > 100 µM
HOP-92 NSCLC
  TGI: > 100 µM
DLD-1 colon
  TGI: > 100 µM
TK-10 renal
  TGI: > 100 µM
HCT-15 colon
  TGI: > 100 µM
SF-295 CNS
  TGI: > 100 µM
786-0 renal
  TGI: > 100 µM
SK-OV-3 ovarian
  TGI: > 100 µM
SK-MEL-2 melanoma
  TGI: > 100 µM
NCI-H23 lung
  TGI: > 100 µM
NCI-H522 lung
  TGI: > 100 µM
KM12 colon
  TGI: > 100 µM
DMS 273 small cell lung
  TGI: > 100 µM
SF-539 CNS
  TGI: > 100 µM
HOP-62 NSCLC
  TGI: > 100 µM
LOX IMVI melanoma
  TGI: > 100 µM
COLO 205 colon
  TGI: > 100 µM
OVCAR-3 ovarian
  TGI: > 100 µM
HOP-18 NSCLC
  TGI: > 100 µM
HL-60(TB) leukemia
  TGI: > 100 µM
CAKI-1 renal
  TGI: > 100 µM
SF-268 CNS
  TGI: > 100 µM
HT29 colon
  TGI: > 100 µM
EKVX NSCLC
  TGI: > 100 µM
UACC-62 melanoma
  TGI: > 100 µM
M19-MEL melanoma
  TGI: > 100 µM
IGROV1 ovarian
  TGI: > 100 µM
KM20L2 colon
  TGI: > 100 µM
SNB-19 CNS
  TGI: > 100 µM
RXF 393 renal
  TGI: > 100 µM
UO-31 renal
  TGI: > 100 µM
MALME-3M melanoma
  TGI: > 100 µM
SK-MEL-28 melanoma
  TGI: > 100 µM
NCI-H460 lung
  TGI: > 100 µM
ACHN renal
  TGI: > 100 µM
UACC-257 melanoma
  TGI: > 100 µM
DMS 114 small cell lung
  TGI: > 100 µM
SNB-78 CNS
  TGI: > 100 µM
RPMI-8226 leukemia
  TGI: > 100 µM
SK-MEL-5 melanoma
  TGI: > 100 µM
CCRF-CEM leukemia
  TGI: > 100 µM
SNB-75 CNS
  TGI: 84.8 µM
U251 CNS
  TGI: > 100 µM
A549 NSCLC
  TGI: > 100 µM
HCC-2998 colon
  TGI: > 100 µM
MOLT-4 leukemia
  TGI: > 100 µM
SN12C renal
  TGI: > 100 µM
K-562 leukemia
  TGI: > 100 µM
A498 renal
  TGI: > 100 µM
OVCAR-8 ovarian
  TGI: > 100 µM

## COc1ccc2nc3cc(Cl)ccc3c(NCCCN(CCCl)CCCl)c2c1
OVCAR-5 ovarian
  TGI: 0.31 µM
DLD-1 colon
  TGI: > 100 µM
HCT-15 colon
  TGI: 1.13 µM
SF-295 CNS
  TGI: 0.505 µM
SK-OV-3 ovarian
  TGI: 1.12 µM
SK-MEL-2 melanoma
  TGI: 0.437 µM
NCI-H522 lung
  TGI: 0.163 µM
KM12 colon
  TGI: 0.395 µM
DMS 273 small cell lung
  TGI: 1.03 µM
OVCAR-3 ovarian
  TGI: 0.295 µM
HOP-18 NSCLC
  TGI: 9.4 µM
HL-60(TB) leukemia
  TGI: 0.0135 µM
CAKI-1 renal
  TGI: 0.123 µM
SF-268 CNS
  TGI: 0.3 µM
NCI-H226 lung
  TGI: 0.311 µM
HT29 colon
  TGI: 0.333 µM
EKVX NSCLC
  TGI: 0.539 µM
M19-MEL melanoma
  TGI: 0.846 µM
IGROV1 ovarian
  TGI: 0.479 µM
KM20L2 colon
  TGI: > 100 µM
UO-31 renal
  TGI: 1.02 µM
UACC-257 melanoma
  TGI: > 100 µM
SNB-75 CNS
  TGI: 0.407 µM
OVCAR-4 ovarian
  TGI: 0.232 µM
A549 NSCLC
  TGI: 0.664 µM
K-562 leukemia
  TGI: 0.154 µM

## c1ccc(-c2nn(-c3ccccc3)[n+](-c3ccccc3)n2)cc1
OVCAR-5 ovarian
  TGI: > 100 µM
PC-3 prostate
  TGI: > 20.7 µM
HCT-116 colon
  TGI: > 56.7 µM
SW-620 colon
  TGI: > 100 µM
HOP-92 NSCLC
  TGI: 96.3 µM
MDA-N
  TGI: 31.5 µM
TK-10 renal
  TGI: > 88 µM
HCT-15 colon
  TGI: > 100 µM
SF-295 CNS
  TGI: > 100 µM
M14 melanoma
  TGI: 47.5 µM
HS 578T breast
  TGI: > 100 µM
786-0 renal
  TGI: > 93.5 µM
SK-OV-3 ovarian
  TGI: > 100 µM
SK-MEL-2 melanoma
  TGI: > 80.1 µM
NCI-H23 lung
  TGI: 28.3 µM
NCI-H522 lung
  TGI: > 86.3 µM
KM12 colon
  TGI: > 81.7 µM
SF-539 CNS
  TGI: > 100 µM
SR leukemia
  TGI: > 44.4 µM
HOP-62 NSCLC
  TGI: > 100 µM
LOX IMVI melanoma
  TGI: > 92.4 µM
COLO 205 colon
  TGI: > 92.4 µM
HL-60(TB) leukemia
  TGI: 6.47 µM
CAKI-1 renal
  TGI: > 100 µM
SF-268 CNS
  TGI: > 38.8 µM
NCI-H226 lung
  TGI: > 100 µM
HT29 colon
  TGI: > 100 µM
EKVX NSCLC
  TGI: > 43 µM
UACC-62 melanoma
  TGI: 40.9 µM
IGROV1 ovarian
  TGI: > 100 µM
BT-549 breast
  TGI: > 100 µM
MDA-MB-231 breast
  TGI: > 100 µM
SNB-19 CNS
  TGI: > 100 µM
MCF7 breast
  TGI: 25.9 µM
RXF 393 renal
  TGI: 80.6 µM
UO-31 renal
  TGI: > 100 µM
MDA-MB-435
  TGI: 23.5 µM
MALME-3M melanoma
  TGI: 2.93 µM
SK-MEL-28 melanoma
  TGI: > 100 µM
NCI-H460 lung
  TGI: > 100 µM
ACHN renal
  TGI: > 100 µM
UACC-257 melanoma
  TGI: 11.7 µM
NCI/ADR-RES ovarian
  TGI: > 100 µM
SK-MEL-5 melanoma
  TGI: 14.1 µM
CCRF-CEM leukemia
  TGI: > 39.8 µM
SNB-75 CNS
  TGI: > 100 µM
U251 CNS
  TGI: > 100 µM
OVCAR-4 ovarian
  TGI: > 100 µM
DU-145 prostate
  TGI: > 100 µM
A549 NSCLC
  TGI: > 100 µM
HCC-2998 colon
  TGI: 23.7 µM
MOLT-4 leukemia
  TGI: > 100 µM
SN12C renal
  TGI: > 100 µM
K-562 leukemia
  TGI: > 100 µM
T-47D breast
  TGI: > 100 µM
A498 renal
  TGI: > 100 µM
OVCAR-8 ovarian
  TGI: > 100 µM

## Clc1ccc(C2NN=C3c4ccccc4OCC32)cc1 (configuration not stated)
OVCAR-5 ovarian
  TGI: > 100 µM
PC-3 prostate
  TGI: 64.3 µM
HCT-116 colon
  TGI: > 36.4 µM
SW-620 colon
  TGI: > 25.3 µM
HOP-92 NSCLC
  TGI: > 100 µM
MDA-N
  TGI: 2.56 µM
TK-10 renal
  TGI: > 100 µM
HCT-15 colon
  TGI: 13.5 µM
M14 melanoma
  TGI: > 45.1 µM
HS 578T breast
  TGI: 14.6 µM
786-0 renal
  TGI: 29.5 µM
SK-OV-3 ovarian
  TGI: > 100 µM
SK-MEL-2 melanoma
  TGI: 15.5 µM
NCI-H23 lung
  TGI: 51 µM
NCI-H522 lung
  TGI: 3.63 µM
KM12 colon
  TGI: > 37.9 µM
SF-539 CNS
  TGI: 7.17 µM
SR leukemia
  TGI: 5.67 µM
HOP-62 NSCLC
  TGI: > 93.5 µM
LOX IMVI melanoma
  TGI: 27.6 µM
COLO 205 colon
  TGI: 12.4 µM
OVCAR-3 ovarian
  TGI: 29.6 µM
HL-60(TB) leukemia
  TGI: 11.9 µM
CAKI-1 renal
  TGI: > 100 µM
SF-268 CNS
  TGI: > 81 µM
NCI-H226 lung
  TGI: 14.2 µM
HT29 colon
  TGI: 12.2 µM
EKVX NSCLC
  TGI: 27.2 µM
UACC-62 melanoma
  TGI: > 47.2 µM
IGROV1 ovarian
  TGI: 22.3 µM
BT-549 breast
  TGI: 79.3 µM
MDA-MB-231 breast
  TGI: 6.91 µM
SNB-19 CNS
  TGI: > 100 µM
MCF7 breast
  TGI: > 45.2 µM
RXF 393 renal
  TGI: 41.3 µM
UO-31 renal
  TGI: 41.4 µM
MDA-MB-435
  TGI: > 21.3 µM
MALME-3M melanoma
  TGI: 23.1 µM
SK-MEL-28 melanoma
  TGI: > 85.6 µM
NCI-H460 lung
  TGI: 25.8 µM
ACHN renal
  TGI: > 100 µM
UACC-257 melanoma
  TGI: 87.4 µM
RPMI-8226 leukemia
  TGI: 6.93 µM
NCI/ADR-RES ovarian
  TGI: 6.14 µM
SK-MEL-5 melanoma
  TGI: 20.4 µM
CCRF-CEM leukemia
  TGI: > 74.8 µM
SNB-75 CNS
  TGI: > 100 µM
U251 CNS
  TGI: > 56.8 µM
OVCAR-4 ovarian
  TGI: > 73.1 µM
DU-145 prostate
  TGI: > 95.4 µM
A549 NSCLC
  TGI: > 100 µM
HCC-2998 colon
  TGI: 13.5 µM
MOLT-4 leukemia
  TGI: 26.9 µM
SN12C renal
  TGI: 22.1 µM
K-562 leukemia
  TGI: > 22.9 µM
T-47D breast
  TGI: 54.3 µM
A498 renal
  TGI: 92.6 µM
OVCAR-8 ovarian
  TGI: 55.2 µM
